Results as given in ChEMBL document CHEMBL3045348, “Thiazoles: having diverse biological activities” (Med Chem Res, 2012).

Experiment: Antioxidant activity assessed as trolox equivalents of ABTS radical scavenging activity
Assay type: functional

COc1ccc(Nc2nc(N)c(C(=O)c3ccccc3)s2)cc1
Activity: 0.17 µM
